In US12264134B2 (Merck Sharp & Dohme LLC, priority 2018, dated 2025) one finds IC50 data, which are given here for 18 compounds.

The target of assay [1] is T1, IDO1 (Homo sapiens, UniProt P14902). Put plainly: IDO1 Cellular Assay in HeLa Cells Stimulated with IFNγ. The assay is classed as cell-based. To be noted: read-out: HeLa Cell Potency, IC50.
Assay [2] deals with T1, IDO1. The assay can be described thus: IDO1 Human Whole blood Assay. Further details: Human whole blood was drawn in sodium heparin coated tubes from healthy internal donors; from tissue; host or cells: human whole blood from healthy donors, stimulated with LPS and IFNγ. To be noted: LPS and IFNγ stimulated, 18 h, read-out: Human Whole Blood Potency, IC50. The assay is classed as cell-based. Summed up: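 LC/MS/MS of kynurenine, normalized to spiked isotope-labeled standard (3 μM final), served as the readout. Beforehand, fresh human blood with compound (15 min preincubation) was stimulated overnight (18 h, 37 °C) with 100 ng/mL LPS/IFNγ. IC50 was obtained by four-parameter curve fitting.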

T1 sequence (P14902 whole entry): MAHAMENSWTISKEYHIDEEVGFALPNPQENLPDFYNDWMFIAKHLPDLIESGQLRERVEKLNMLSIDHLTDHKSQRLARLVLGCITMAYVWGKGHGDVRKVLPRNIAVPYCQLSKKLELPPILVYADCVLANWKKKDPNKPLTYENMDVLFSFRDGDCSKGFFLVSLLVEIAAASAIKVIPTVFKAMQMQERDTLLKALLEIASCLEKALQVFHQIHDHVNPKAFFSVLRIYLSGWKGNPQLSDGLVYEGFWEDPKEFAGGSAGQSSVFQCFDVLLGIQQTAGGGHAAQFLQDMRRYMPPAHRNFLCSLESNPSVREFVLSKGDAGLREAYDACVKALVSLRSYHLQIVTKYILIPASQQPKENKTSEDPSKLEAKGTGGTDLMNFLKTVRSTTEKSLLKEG

Broadly, the IC50 is the concentration needed to halve the response being measured. Regarding `Cc1c(F)ccc(N2CCN(C(=O)Cn3nc(C(=O)N4CCC(O)CC4)c4c3CCCC4)CC2)c1C` [Example 451, 1-(4-(4-fluoro-2,3-dimethylphenyl)piperazin-1-yl)-2-(3-(4-hydroxypiperidine-1-carbonyl)-4,5,6,7-tetrahydro-1H-indazol-1-yl)ethanone], the IC50 on IDO1 [1] turned out to be 0.0012 µM; on IDO1 [2], 0.036 µM.

Consider `Cc1cccc(N2CCN(C(=O)Cn3nc(C(=O)N4CCN(CC(N)=O)CC4)c4c3CCCC4)CC2)c1C` [Example 454, 2-(4-(1-(2-(4-(2,3-dimethylphenyl)piperazin-1-yl)-2-oxoethyl)-4,5,6,7-tetrahydro-1H-indazol-3-carbonyl)piperazin-1-yl) acetamide], for which the IC50 at IDO1 [1] is 0.00282 µM; on IDO1 [2] it was 0.068 µM.

With `Cc1c(F)cccc1N1CCN(C(=O)Cn2nc(C(=O)N3CCC(OCCO)CC3)c3c2CCC3)CC1` [Example 456, 1-(4-(3-fluoro-2-methylphenyl)piperazin-1-yl)-2-(3-(4-(2-hydroxyethoxy)piperidine-1-carbonyl)-5,6-dihydrocyclopenta[c]pyrazol-1(4H)-yl) ethanone], the IC50 at IDO1 [1] stood at 0.0214 µM; at IDO1 [2] it was 0.102 µM.

In the case of `Cc1cccc(N2CCN(C(=O)Cn3nc(C(=O)N4CC[C@@H](O)[C@@H](F)C4)c4c3CCCC4)CC2)c1Cl` [Example 457, 1-(4-(2-chloro-3-methylphenyl)piperazin-1-yl)-2-(3-((3S,4R)-3-fluoro-4-hydroxy-piperidine-1-carbonyl)-4,5,6,7-tetrahydro-1H-indazol-1-yl)ethanone], the IC50 at IDO1 [1] was determined as 0.00175 µM; on IDO1 [2], 0.307 µM.

Take `Cc1c(F)ccc(N2CCN(C(=O)Cn3nc(C(=O)N4CC[C@@H](O)[C@@H](F)C4)c4c3CCCC4)CC2)c1C` [Example 462, 1-(4-(4-fluoro-2,3-dimethylphenyl)piperazin-1-yl)-2-(3-((3S,4R)-3-fluoro-4-hydroxy-piperidine-1-carbonyl)-4,5,6,7-tetrahydro-1H-indazol-1-yl)ethanone,]: the IC50 on IDO1 [1] was 0.00132 µM; on IDO1 [2] it was 0.103 µM.

`Cc1cccc(N2CCN(C(=O)Cn3nc(C(=O)N4CCC(OCCO)CC4)c4c3CCCC4)CC2)c1C` [Example 463, 1-(4-(2,3-dimethylphenyl)piperazin-1-yl)-2-(3-(4-(2-hydroxyethoxy)piperidine-1-carbonyl)-4,5,6,7-tetrahydro-1H-indazol-1-yl)ethanone]: the results for the IC50 at IDO1 [1] and at IDO1 [2] were 0.00137 µM and 0.037 µM, respectively.

`Cc1c(F)ccc(N2CCN(C(=O)Cn3nc(C(=O)N4CCC(O)CC4(C)C)c4c3CCCC4)CC2)c1C` (stereo not drawn) [Example 464, 1-(4-(4-fluoro-2,3-dimethylphenyl)piperazin-1-yl)-2-(3-(4-hydroxy-2,2-dimethyl-piperidine-1-carbonyl)-4,5,6,7-tetrahydro-1H-indazol-1-yl)ethanone]: the IC50 at IDO1 [1] was 0.00138 µM; on IDO1 [2] it was 0.135 µM.

For `Cc1c(F)ccc(N2CCN(C(=O)Cn3nc(C(=O)N4CC[C@H](O)[C@H](F)C4)c4c3CCCC4)CC2)c1C` [Example 465, 1-(4-(4-fluoro-2,3-dimethylphenyl)piperazin-1-yl)-2-(3-((3R,4S)-3-fluoro-4-hydroxypiperidine-1-carbonyl)-4,5,6,7-tetrahydro-1H-indazol-1-yl)ethanone], the IC50 on IDO1 [1] was 0.00147 µM; at IDO1 [2], 0.087 µM.

Turning to `Cc1cccc(N2CCN(C(=O)Cn3nc(C(=O)N4CCC(O)CC4)c4c3CCCC4)CC2)c1C` [Example 466, 1-(4-(2,3-dimethylphenyl)piperazin-1-yl)-2-(3-(4-hydroxy-piperidine-1-carbonyl)-4,5,6,7-tetrahydro-1H-indazol-1-yl)ethanone], the IC50 at IDO1 [1] turned out to be 0.00169 µM; on IDO1 [2], 0.233 µM.

For the compound `Cc1cccc(N2CCN(C(=O)Cn3nc(C(=O)N4CC[C@H](O)[C@@H](F)C4)c4c3CCCC4)CC2)c1C` [Example 468, 1-(4-(2,3-dimethylphenyl)piperazin-1-yl)-2-(3-((3S,4S)-3-fluoro-4-hydroxypiperidine-1-carbonyl)-4,5,6,7-tetrahydro-1H-indazol-1-yl)ethanone], the figures for the IC50 at IDO1 [1] and on IDO1 [2] were 0.0019 µM and 0.088 µM, respectively.

Consider `Cc1cccc(N2CCN(C(=O)Cn3nc(C(=O)N4CCO[C@@H](CO)C4)c4c3CCCC4)CC2)c1C` [Example 470, (R)-1-(4-(2,3-dimethylphenyl)piperazin-1-yl)-2-(3-(2-(hydroxymethyl)morpholine-4-carbonyl)-4,5,6,7-tetrahydro-1H-indazol-1-yl)ethanone], for which the IC50 on IDO1 [1] was found to be 0.00262 µM; on IDO1 [2] it was 0.031 µM.

As to `CC(=O)NC1CCN(C(=O)c2nn(CC(=O)N3CCN(c4cccc(C)c4C)CC3)c3c2CCCC3)CC1` [Example 471, N-(1-(1-(2-(4-(2,3-dimethylphenyl)piperazin-1-yl)-2-oxoethyl)-4,5,6,7-tetrahydro-1H-indazole-3-carbonyl)piperidin-4-yl) acetamide], the IC50 at IDO1 [1] was determined as 0.00263 µM; at IDO1 [2] it was 0.065 µM.

`Cc1cccc(N2CCN(C(=O)Cn3nc(C(=O)N4CC[C@@H](O)[C@H](F)C4)c4c3CCCC4)CC2)c1C` [Example 472, 1-(4-(2,3-dimethylphenyl)piperazin-1-yl)-2-(3-((3R,4R)-3-fluoro-4-hydroxypiperidine-1-carbonyl)-4,5,6,7-tetrahydro-1H-indazol-1-yl)ethanone]: the IC50 turned out to be 0.00337 µM at IDO1 [1] and 0.208 µM at IDO1 [2].

Consider `Cc1cccc(N2CCN(C(=O)Cn3nc(C(=O)N4CCC(NC(=O)CO)CC4)c4c3CCCC4)CC2)c1C` [Example 473], for which the results for the IC50 on IDO1 [1] and at IDO1 [2] were 0.00416 µM and 0.101 µM, respectively.

Regarding `Cc1cccc(N2CCN(C(=O)Cn3nc(C(=O)N4CC[C@H](O)[C@H](F)C4)c4c3CCCC4)CC2)c1C` [Example 475, 1-(4-(2,3-dimethylphenyl)piperazin-1-yl)-2-(3-((3R,4S)-3-fluoro-4-hydroxypiperidine-1-carbonyl)-4,5,6,7-tetrahydro-1H-indazol-1-yl)ethanone], the IC50 stood at 0.00426 µM on IDO1 [1] and 0.052 µM on IDO1 [2].

Regarding `Cc1cccc(N2CCN(C(=O)Cn3nc(C(=O)N4CC[C@@H](O)[C@@H](F)C4)c4c3CCCC4)CC2)c1C` [Example 476, 1-(4-(2,3-dimethylphenyl)piperazin-1-yl)-2-(3-((3S,4R)-3-fluoro-4-hydroxypiperidine-1-carbonyl)-4,5,6,7-tetrahydro-1H-indazol-1-yl)ethanone], the IC50 on IDO1 [1] came to 0.00545 µM; at IDO1 [2] it was 0.164 µM.

Take `Cc1cccc(N2CCN(C(=O)Cn3nc(C(=O)N4CCC(O)(CF)CC4)c4c3CCCC4)CC2)c1C` [Example 477, 1-(4-(2,3-dimethylphenyl)piperazin-1-yl)-2-(3-(4-(fluoromethyl)-4-hydroxypiperidine-1-carbonyl)-4,5,6,7-tetrahydro-1H-indazol-1-yl)ethanone]: the IC50 at IDO1 [1] stood at 0.00553 µM; at IDO1 [2], 0.061 µM.

Turning to `Cc1cccc(N2CCN(C(=O)Cn3nc(C(=O)N4CCC(NC(=O)CCO)CC4)c4c3CCCC4)CC2)c1C` [Example 478, N-(1-(1-(2-(4-(2,3-dimethylphenyl)piperazin-1-yl)-2-oxoethyl)-4,5,6,7-tetrahydro-1H-indazol-3-carbonyl)piperidin-4-yl)-3-hydroxypropanamide], the concentration for half-maximal inhibition (IC50) on IDO1 [1] turned out to be 0.00715 µM; on IDO1 [2] it was 0.137 µM.
